Assay results published in patent publication US20240024333A1, “USE OF SMALL MOLECULE FAK ACTIVATORS TO PROMOTE MUCOSAL HEALING” (Regents of the University of Minnesota, priority 2020, published 2024).
“Also recorded” adds a separate entry of the source. Like-named read-outs stand apart in the source and are kept apart here. Blank lines part the entries; values can stand above or below the compound they belong to.

Legend:
FAK = biological target: T1, FAK (Homo sapiens, UniProt Q05397); experiment: Cell-based FAK-Tyr-397 activation (Western blot, Caco-2 cells); details: for FAK activation / FAK-Tyr-397 phosphorylation (in words): vs. DMSO vehicle control; for FAK-Tyr-397/FAK fold change: Cell-based FAK-Tyr-397 activation
T1 construct: endogenous in cells; host or cells: Caco-2 (human, ATCC)
T1 sequence (Q05397 whole entry): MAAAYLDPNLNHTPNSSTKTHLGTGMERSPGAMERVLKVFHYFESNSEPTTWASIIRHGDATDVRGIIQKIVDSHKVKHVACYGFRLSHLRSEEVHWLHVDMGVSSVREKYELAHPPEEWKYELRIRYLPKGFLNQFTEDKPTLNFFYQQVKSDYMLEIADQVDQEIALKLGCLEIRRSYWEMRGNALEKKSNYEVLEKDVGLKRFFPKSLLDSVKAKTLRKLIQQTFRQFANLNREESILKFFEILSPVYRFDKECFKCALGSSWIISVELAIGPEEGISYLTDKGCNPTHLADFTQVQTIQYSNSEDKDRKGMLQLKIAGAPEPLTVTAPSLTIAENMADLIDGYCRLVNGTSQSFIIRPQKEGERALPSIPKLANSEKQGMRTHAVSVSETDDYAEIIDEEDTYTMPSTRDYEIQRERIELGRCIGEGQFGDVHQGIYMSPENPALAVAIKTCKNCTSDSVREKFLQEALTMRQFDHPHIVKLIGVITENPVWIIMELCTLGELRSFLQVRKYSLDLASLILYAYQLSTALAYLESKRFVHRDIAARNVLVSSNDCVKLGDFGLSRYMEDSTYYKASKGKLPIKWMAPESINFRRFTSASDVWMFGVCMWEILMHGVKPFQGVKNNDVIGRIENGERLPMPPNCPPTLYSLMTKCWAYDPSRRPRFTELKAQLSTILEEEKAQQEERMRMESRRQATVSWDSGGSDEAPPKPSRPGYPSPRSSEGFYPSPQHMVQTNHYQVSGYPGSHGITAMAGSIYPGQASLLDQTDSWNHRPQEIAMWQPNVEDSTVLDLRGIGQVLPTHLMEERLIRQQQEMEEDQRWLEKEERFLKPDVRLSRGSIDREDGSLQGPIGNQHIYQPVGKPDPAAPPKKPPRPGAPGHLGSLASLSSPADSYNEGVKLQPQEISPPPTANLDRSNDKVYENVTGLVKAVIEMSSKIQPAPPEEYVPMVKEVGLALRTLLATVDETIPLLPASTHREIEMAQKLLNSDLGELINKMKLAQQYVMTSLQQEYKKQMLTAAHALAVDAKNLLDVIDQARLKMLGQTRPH
Procedure: Human Caco-2 cells were from ATCC (Manassas, VA) and maintained in Dulbecco's Modified Essential Eagle's Medium supplemented with 10% FBS as described by us previously 25. 80-90% confluent Caco-2 cells were seeded into cell culture plates pacificated with 1% heat inactivated bovine serum albumin to prevent adhesion and avoid adhesion-associated background FAK activation. Suspended cells were then treated with DMSO (0.1%) or small molecules for 1 hour before harvesting for Western blotting.
Cells were lysed and protein concentration was determined via bicinchoninic acid protein assay (Thermo Fisher, Rockford, IL). […] Images were taken using a LICOR-Odyssey-Fc imaging system (LI-COR Biosciences, Lincoln, NE).

Caco-2 cells = experiment: Caco-2 monolayer wound closure assay; type: cell-based, human
Procedure: Caco-2 cells were seeded at 75-80% confluence into collagen I coated 6-well plates. When the cells reached 100% confluence, wounds were made in the monolayers with non-barrier autoclaved tips. Wound images were captured using an inverted light microscope (OLYMPUS CK2, Center Valley, PA) at 0 hours and 24 hours after treatment with DMSO or small molecules. Wound areas were measured with Image J software.

Pyk2 = biological target: T2, Pyk2 (Homo sapiens, UniProt Q14289); experiment: Pyk2 activation in intact cells; type: cell-based; details: at 10 μM
T2 construct: endogenous in cells; host or cells: Caco-2
T2 sequence (Q14289 whole entry): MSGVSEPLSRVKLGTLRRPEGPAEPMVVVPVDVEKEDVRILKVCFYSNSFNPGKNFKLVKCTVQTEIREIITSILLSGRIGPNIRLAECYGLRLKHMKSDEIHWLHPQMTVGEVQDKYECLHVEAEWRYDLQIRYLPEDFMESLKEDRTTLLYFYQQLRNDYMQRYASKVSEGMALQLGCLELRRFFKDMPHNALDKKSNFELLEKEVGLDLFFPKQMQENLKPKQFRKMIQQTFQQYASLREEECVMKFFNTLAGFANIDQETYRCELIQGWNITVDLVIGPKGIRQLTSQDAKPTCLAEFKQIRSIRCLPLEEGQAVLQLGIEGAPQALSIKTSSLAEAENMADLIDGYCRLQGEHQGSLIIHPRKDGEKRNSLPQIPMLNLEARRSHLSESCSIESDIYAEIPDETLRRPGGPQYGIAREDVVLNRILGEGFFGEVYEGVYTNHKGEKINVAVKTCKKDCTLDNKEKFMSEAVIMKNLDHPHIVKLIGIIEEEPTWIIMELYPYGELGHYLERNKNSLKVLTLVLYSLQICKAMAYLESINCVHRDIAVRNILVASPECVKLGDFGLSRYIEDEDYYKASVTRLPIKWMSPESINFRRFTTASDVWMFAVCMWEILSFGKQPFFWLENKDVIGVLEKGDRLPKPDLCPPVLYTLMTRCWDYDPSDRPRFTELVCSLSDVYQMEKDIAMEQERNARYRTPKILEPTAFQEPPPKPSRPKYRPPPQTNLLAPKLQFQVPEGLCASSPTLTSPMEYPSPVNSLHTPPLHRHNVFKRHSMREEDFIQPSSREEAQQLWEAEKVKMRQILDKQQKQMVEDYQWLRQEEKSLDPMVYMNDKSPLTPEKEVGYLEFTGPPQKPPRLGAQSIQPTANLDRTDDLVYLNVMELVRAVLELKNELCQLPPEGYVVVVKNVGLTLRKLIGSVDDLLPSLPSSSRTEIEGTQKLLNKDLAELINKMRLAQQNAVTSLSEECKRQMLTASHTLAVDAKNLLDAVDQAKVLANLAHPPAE

Src = biological target: T3, Src (Homo sapiens, UniProt P12931); experiment: Src activation in intact cells; type: cell-based; details: at 10 μM
T3 construct: endogenous in cells; host or cells: Caco-2
T3 sequence (P12931 whole entry): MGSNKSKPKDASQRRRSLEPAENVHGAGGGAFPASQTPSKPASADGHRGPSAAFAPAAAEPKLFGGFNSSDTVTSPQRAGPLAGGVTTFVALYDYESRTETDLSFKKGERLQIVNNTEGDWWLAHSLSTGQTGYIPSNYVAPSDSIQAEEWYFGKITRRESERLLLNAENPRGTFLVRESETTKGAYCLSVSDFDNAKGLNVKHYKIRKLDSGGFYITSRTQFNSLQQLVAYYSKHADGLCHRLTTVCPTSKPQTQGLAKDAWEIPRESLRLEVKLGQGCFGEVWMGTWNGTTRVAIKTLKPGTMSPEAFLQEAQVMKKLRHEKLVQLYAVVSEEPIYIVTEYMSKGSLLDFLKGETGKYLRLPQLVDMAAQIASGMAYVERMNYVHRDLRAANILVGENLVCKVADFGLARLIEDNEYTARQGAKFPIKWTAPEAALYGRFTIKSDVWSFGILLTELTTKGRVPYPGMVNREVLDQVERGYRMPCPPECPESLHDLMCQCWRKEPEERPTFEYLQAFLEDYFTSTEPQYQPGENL

[1] = system: ischemic ileal mucosal ulcers; experiment: Ischemic ileal ulcer model (acetic-acid-soaked discs on serosa); type: in vivo, mice; details: mice; 40: 30 mg/kg/day by osmotic minipump, 4 days; 30 mg/kg/day
[2] = system: IMR-90 human pulmonary fibroblasts; experiment: Cytotoxicity in IMR-90 cells; type: cell-based
[3] = system: SH-SY5Y human neuronal cells; experiment: Cytotoxicity in SH-SY5Y cells; type: cell-based
[4] = Cytotoxicity (cells not named); type: cell-based
[5] = B/P ratio and blood-brain barrier crossing; type: in vivo; details: in vivo
Human plasma stability = type: in vitro ADME; details: at 6 h
Plasma protein binding = type: in vitro ADME
Source text: (§1) The most successful molecules underwent in vitro ADMET assays, including mouse and human metabolic stability, solubility (pH 7.4), Caco-2 (permeability), and log D determination. We will evaluate lead candidates for drug-like properties, including aqueous solubility (PBS buffer, pH 7.4), pKa, lipophilicity, chemical stability at pH 1 (the pH of the stomach), pH 6 (small intestine), A-B partitioning (octanol-PBS buffer, pH 7.4), liver microsomal stability as an indication of potential first-pass metabolism (microsomes from mouse and humans), substrate potential for isoforms of human P450 such as CYP3A4, cell permeability (Caco-2 cells), hERG toxicity (cell lines), mutagenesis, and plasma protein binding (mouse & human). […]. Computed physical properties that correlate with good oral bioavailability and cell permeability will be calculated for new compounds throughout the optimization process and will […] also influence lead compound selection as will ligand efficiency (LE) and lipophilic efficiency (LLE). Molecules will be administered by gavage to mice at 30 mg/kg, and we will measure plasma levels at 2 and 4 hours. The most successful molecules in this regard (with the highest levels at 2 and 4 hours) may be further modified by developing combinations of modifications at different parts of the molecule.

hERG = hERG (Homo sapiens, UniProt Q12809); experiment: hERG toxicity; type: cell-based; details: human
Sequence of hERG (Q12809 whole entry): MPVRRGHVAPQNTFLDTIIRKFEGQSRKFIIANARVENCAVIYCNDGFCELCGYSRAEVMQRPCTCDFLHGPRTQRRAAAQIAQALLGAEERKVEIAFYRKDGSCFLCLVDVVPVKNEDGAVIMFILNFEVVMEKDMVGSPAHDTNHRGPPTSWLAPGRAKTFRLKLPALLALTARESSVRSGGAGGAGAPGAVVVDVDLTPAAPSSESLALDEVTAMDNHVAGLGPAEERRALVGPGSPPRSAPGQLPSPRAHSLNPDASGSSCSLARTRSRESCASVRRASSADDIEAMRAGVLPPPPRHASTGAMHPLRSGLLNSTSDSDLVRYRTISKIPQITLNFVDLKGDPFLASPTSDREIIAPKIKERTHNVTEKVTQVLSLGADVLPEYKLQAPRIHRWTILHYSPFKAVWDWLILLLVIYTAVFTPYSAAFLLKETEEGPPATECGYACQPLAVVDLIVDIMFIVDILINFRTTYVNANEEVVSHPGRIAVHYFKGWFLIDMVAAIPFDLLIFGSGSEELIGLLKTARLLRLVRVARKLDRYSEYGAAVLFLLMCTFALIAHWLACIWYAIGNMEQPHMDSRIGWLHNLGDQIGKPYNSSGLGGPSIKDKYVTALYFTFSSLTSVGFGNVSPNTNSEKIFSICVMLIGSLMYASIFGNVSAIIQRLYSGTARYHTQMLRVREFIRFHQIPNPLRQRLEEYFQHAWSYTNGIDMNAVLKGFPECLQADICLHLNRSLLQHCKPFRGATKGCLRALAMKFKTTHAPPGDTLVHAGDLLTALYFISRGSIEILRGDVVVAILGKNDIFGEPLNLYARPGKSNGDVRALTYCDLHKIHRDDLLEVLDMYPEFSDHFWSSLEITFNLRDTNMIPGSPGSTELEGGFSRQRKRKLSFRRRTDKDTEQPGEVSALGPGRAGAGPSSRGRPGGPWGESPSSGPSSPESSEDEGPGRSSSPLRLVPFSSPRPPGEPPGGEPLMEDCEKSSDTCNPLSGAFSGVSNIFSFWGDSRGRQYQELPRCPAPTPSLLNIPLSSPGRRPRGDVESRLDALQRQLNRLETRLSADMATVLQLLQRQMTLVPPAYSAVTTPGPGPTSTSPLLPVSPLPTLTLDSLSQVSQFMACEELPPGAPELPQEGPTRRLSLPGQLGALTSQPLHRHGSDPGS
Source text: as §1

Mini-Ames = experiment: Mini-Ames
Source text: as §1

log D determination = type: physicochemical; details: pH 7.4
Source text: as §1

Solubility = type: physicochemical
Source text: as §1

mice [6] = details: mouse, in vivo
[7] = mouse, in vivo; for course of plasma levels after enteral dosing (in words): 10 mg/kg
in vivo = details: mouse
mice [8] = experiment: Tolerability and toxicity in mice

- FAK activation / FAK-Tyr-397 phosphorylation (in words) (FAK): does not impair activity
SMILES: O=C(Nc1cc(F)ccc1N1CCOCC1)N1CCCC1c1ccncc1 (stereo not shown) [Compound 25]

- FAK activation / FAK-Tyr-397 phosphorylation (in words) (FAK): seemed to activate FAK
SMILES: COc1ccc(C(CNC(=O)Nc2cc(C(F)(F)F)ccc2N2CCOCC2)N(C)C)cc1 (stereo not shown) [Compound 31]

- FAK activation / FAK-Tyr-397 phosphorylation (in words) (FAK): seemed to activate FAK
SMILES: O=C(Nc1cc(C(F)(F)F)ccc1N1CCOCC1)N1CCCC1C1CCCCC1 (stereo not shown) [Compound 36]

- FAK activation / FAK-Tyr-397 phosphorylation (in words) (FAK): seemed to activate FAK
SMILES: O=C(Nc1cc(C(F)(F)F)ccc1N1CCOCC1)N1CCCC1c1ccccc1 (stereo not shown) [Compound 37]

SMILES: CN(C)C(CNC(=O)Nc1cc(C(F)(F)F)ccc1N1CCOCC1)c1ccncc1 (stereo not shown) [Compound 40]
- wound closure after two 2-hour exposures vs full 24 hours of exposure (Caco-2 cells; 100 nM): equivalent stimulation of wound closure
- wound closure at 24 hours after three-hour exposure vs 24 hours exposure (Caco-2 cells; 100 nM, medium changed back after exposure): same effect as 24 hours
- wound closure with proliferation blocked by hydroxyurea (in words) (Caco-2 cells; hydroxyurea present): still stimulates Caco-2 monolayer wound closure
- monolayer wound closure / epithelial sheet migration (in words) (Caco-2 cells; in vitro, 24 hours): stimulates wound closure; also recorded: promotes epithelial monolayer wound healing; also recorded: dose-responsive stimulation
- Pyk2 activation (in words) (Pyk2): does not activate
- Src activation (in words) (Src): does not activate
- ischemic ulcer healing (in words) [1]: much smaller ulcers; also recorded: acceleration of healing
- Cytotoxicity (LD50) ([2]; IMR90): SYSY (LD50)~1 mM
- concentration at which cytotoxicity is displayed ([2]; IMR-90): 1000 µM
- cytotoxic concentration as multiple of the 100 pM that activates FAK ([2]; IMR-90): 10^7 ×
- Cytotoxicity (LD50) [3]: SYSY (LD50)~1 mM
- concentration at which cytotoxicity is displayed [3]: 1000 µM
- cytotoxic concentration as multiple of the 100 pM that activates FAK [3]: 10^7 ×
- cytotoxicity (in words) [4]: no cytotoxicity at 10000× higher than effective doses; also recorded: neither cytotoxic nor carcinogenic
- blood-brain barrier crossing (in words) [5]: cross the blood-brain barrier
- Human plasma stability (Human plasma stability): 88.56% at 6 h
- Plasma protein binding (Plasma protein binding): 91.39%
- hERG (hERG): hERG > 30 μM
- Mini-Ames (Mini-Ames): negative
- log D7.4 (log D determination): log D7.4 = 2.87
- water solubility / need of DMSO (in words) (Solubility): does not require DMSO; also recorded: truly water soluble
- neurotoxicity (in words) (mice [6]): no neurotoxicity was detected
- renal/hepatic histology, creatinine, ALT (in words) (mice [6]): normal
- serum chemistries (in words) (mice [6]; 120 mg/kg): normal
- course of plasma levels after enteral dosing (in words) [7]: decline by two hours
- course of plasma levels after enteral dosing (in words) ([7]; 2 h): decrease by 2 hours
- plasma level after 240 mg/kg as multiple of therapeutic plasma level ([7]; 1 h): ~6*10^6 ×
- concentration at 4 days (in vivo; 1.25 mg/kg): 26 ng/mL
- half-life (in vivo; T1/2): ~1.5 h
- half-life (in vivo; plasma half-life): 1.5 h
- lethal single dose (mice [8]): 480 mg/kg

- FAK-Tyr-397/FAK fold change (FAK): 1.1 fold change
- FAK activation / FAK-Tyr-397 phosphorylation (in words) (FAK): did not induce FAK phosphorylation
SMILES: O=C(Nc1ccccc1N1CCOCC1)N1CCCC1c1ccncc1 (stereo not shown) [Compound 46]

- FAK-Tyr-397/FAK fold change (FAK): 1.1 fold change
- FAK activation / FAK-Tyr-397 phosphorylation (in words) (FAK): did not induce FAK phosphorylation
SMILES: CCN(C(=O)Nc1ccccc1N1CCOCC1)C(C)c1ccccc1 (stereo not shown) [Compound 48]

- FAK-Tyr-397/FAK fold change (FAK): 1.1 fold change
SMILES: O=C(Nc1cc(C(F)(F)F)ccc1N1CCOCC1)N1CCCC1c1ccc(O)cc1 (stereo not shown) [Compound 49]
